{
  "source": "paper PMC9870890",
  "about": "(Nature Communications, 2023)",
  "key": {"M2R and GoA": {"biological_target": "T1, M2R and GoA (Homo sapiens, UniProt P08172)", "T1 construct": "FLAG (N); 8xHis (C); made in house; host or cells: Sf9 insect cells (receptor)", "T1 sequence (P59768 2-68, one chain of several)": "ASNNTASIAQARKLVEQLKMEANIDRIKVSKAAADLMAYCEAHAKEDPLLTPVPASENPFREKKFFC", "T1 sequence (P09471 2-354, one chain of several, further chain)": "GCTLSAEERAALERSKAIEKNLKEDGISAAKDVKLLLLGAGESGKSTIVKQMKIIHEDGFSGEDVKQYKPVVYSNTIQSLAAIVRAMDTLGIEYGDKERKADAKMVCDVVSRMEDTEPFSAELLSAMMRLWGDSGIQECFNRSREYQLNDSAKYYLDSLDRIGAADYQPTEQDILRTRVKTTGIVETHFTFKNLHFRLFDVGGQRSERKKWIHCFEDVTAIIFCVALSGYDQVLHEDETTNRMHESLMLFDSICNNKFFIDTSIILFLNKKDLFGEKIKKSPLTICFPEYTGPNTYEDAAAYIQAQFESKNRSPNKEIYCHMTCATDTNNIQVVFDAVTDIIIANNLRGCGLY", "T1 sequence (P62873 whole entry, one chain of several, further chain)": "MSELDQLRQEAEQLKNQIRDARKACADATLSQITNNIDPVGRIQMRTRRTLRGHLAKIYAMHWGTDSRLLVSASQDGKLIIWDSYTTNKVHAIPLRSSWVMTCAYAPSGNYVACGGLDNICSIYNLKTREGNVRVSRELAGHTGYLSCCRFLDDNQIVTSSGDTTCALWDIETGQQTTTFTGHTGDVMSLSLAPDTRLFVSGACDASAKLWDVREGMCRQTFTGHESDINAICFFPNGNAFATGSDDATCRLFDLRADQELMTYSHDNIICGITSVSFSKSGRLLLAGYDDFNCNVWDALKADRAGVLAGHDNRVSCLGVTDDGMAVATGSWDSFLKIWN", "experiment": "GTPase-Glo assay (GTP turnover) with purified M2R and GoA", "type": "biochemical", "details": "for Residual GTP (%): 90 min, normalized to GoA alone", "protocol": "The receptors for GTPase-Glo^TM assay were expressed and purified as described above and frozen at −80 °C before use. […] The GTPase reaction was incubated at room temperature (22–25 °C) for different times (15–90 min). […] After incubation, 5 μL reconstituted 1xGTPase-Glo^TM Reagent (Promega) was added to the completed GTPase reaction, mixed briefly and incubated with shaking for 30 min at room temperature (22–25 °C) to convert the remaining GTP into ATP. Then 10 μL Detection Reagent (Promega) was added to the system and incubated for 5-10 min at room temperature (22–25 °C) to convert the ATP into luminescent signals. Luminescence intensity was quantified using a Multimode Plate Reader (PerkinElmer) luminescence counter."}, "human, wild-type M2R": {"biological_target": "T2, human, wild-type M2R (Homo sapiens, UniProt P08172)", "T2 construct": "expressed in transfected cells; host or cells: HEK293A", "T2 sequence (P08172 1-466)": "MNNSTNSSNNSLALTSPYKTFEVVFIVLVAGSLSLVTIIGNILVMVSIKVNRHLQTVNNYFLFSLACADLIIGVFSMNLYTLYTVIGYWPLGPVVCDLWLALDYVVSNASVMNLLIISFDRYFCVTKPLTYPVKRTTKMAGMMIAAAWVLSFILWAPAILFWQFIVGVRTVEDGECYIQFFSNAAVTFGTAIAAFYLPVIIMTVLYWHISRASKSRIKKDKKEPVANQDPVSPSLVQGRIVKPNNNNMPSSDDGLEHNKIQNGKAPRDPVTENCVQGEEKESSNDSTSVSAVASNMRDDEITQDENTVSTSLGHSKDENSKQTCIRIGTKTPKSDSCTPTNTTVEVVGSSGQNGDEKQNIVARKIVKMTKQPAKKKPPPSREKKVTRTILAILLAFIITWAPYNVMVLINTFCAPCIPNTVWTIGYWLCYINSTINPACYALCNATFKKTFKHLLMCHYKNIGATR", "experiment": "NanoBiT-G-protein (GoA) dissociation assay, wild-type M2R, HEK293A cells", "type": "cell-based", "details": "for NanoBiT-GoA dissociation signal, Mean (Veh = 1.000): n = 4", "description": "Plasmid transfection for HEK293A cells (Thermo Fisher Scientific) was performed by combining 25 µl (volume is per 10-cm culture dish) of polyethylenimine solution (1 mg/mL) and a mixture of plasmids each encoding the large fragment (LgBiT)-containing the GαoA subunit (500 ng), the small fragment (SmBiT)-fused Gγ2 subunit with the C68S mutation (2.5 µg) and the untagged Gβ1 subunit (2.5 µg), along with a human, wild-type M2R (1 µg; containing N-terminal HA-derived signal sequence followed by the FLAG-epitope tag). After an incubation for one day, the transfected cells were harvested, pelleted with centrifugation, and suspended in 9 ml of Hank’s balanced saline solution (HBSS) containing 0.01% bovine serum albumin (BSA fatty acid–free grade, SERVA) and 5 mM HEPES (pH 7.4) (assay buffer). The cell suspension was dispensed in a white 96-well plate at a volume of 70 µl per well and mixed with 20 µl of 50 µM coelenterazine (Carbosynth) diluted in the assay buffer. After 2 h incubation at room temperature, the plate was measured for baseline luminescence (SpectraMax L, Molecular Devices) and 10 µl of titrated concentrations of LY2119620 diluted in the assay buffer were added. […] Kinetics data points from 5 min to 10 min were averaged and normalized to the initial count and used as a G-protein dissociation index. […] The G-protein dissociation signals were fitted to a four-parameter sigmoidal concentration-response curve (GraphPad Prism8). For each experiment, we calculated Emax by normalizing Span to the LY2119620-free condition and ∆pEC50 by subtracting pEC50 of the LY2119620-free condition performed in parallel and used the values to denote allosteric modulator activity."}, "Mock": {"system": "Mock", "experiment": "NanoBiT-GoA dissociation assay, Mock-transfected cells (control)", "type": "cell-based"}, "M2R": {"biological_target": "T3, M2R (Homo sapiens, UniProt P08172)", "T3 sequence (P08172 1-466)": "T2 sequence (P08172 1-466)", "experiment": "biochemical", "type": "binding", "parameters": "expressed in transfected cells", "details": "for IC50: IC50 ([3H]-NMS competition)", "protocol": "Purified M2R receptor was reconstituted into high-density lipoprotein (HDL) particles constituting apolipoprotein A1(APOA1) and mixture of POPG: POPC lipids with 3:2 (mol:mol)ratio as previously described. […] Membranes or HDL particles were separated from excess [^3H]-NMS by Whatman GF/B filters using a Brandel 48-well harvester. The bound radioligand were read on a liquid scintillation counter (MicroBeta Jet, PerkinElmer). Data were analyzed by GraphPad Prism 9.2.0."}, "M2R L129^34.51A mutant": {"biological_target": "T4, M2R L129^34.51A mutant (Homo sapiens, UniProt P08172, L129A)", "T4 sequence (P08172 1-466 L129A)": "T2 sequence (P08172 1-466) with L129A", "experiment": "NanoBiT-GoA dissociation assay, L129A mutant M2R", "description": "Plasmid transfection for HEK293A cells (Thermo Fisher Scientific) was performed by combining 25 µl (volume is per 10-cm culture dish) of polyethylenimine solution (1 mg/mL) and a mixture of plasmids each encoding the large fragment (LgBiT)-containing the GαoA subunit (500 ng), the small fragment (SmBiT)-fused Gγ2 subunit with the C68S mutation (2.5 µg) and the untagged Gβ1 subunit (2.5 µg), along with a human, wild-type M2R (1 µg; containing N-terminal HA-derived signal sequence followed by the FLAG-epitope tag). After an incubation for one day, the transfected cells were harvested, pelleted with centrifugation, and suspended in 9 ml of Hank’s balanced saline solution (HBSS) containing 0.01% bovine serum albumin (BSA fatty acid–free grade, SERVA) and 5 mM HEPES (pH 7.4) (assay buffer). The cell suspension was dispensed in a white 96-well plate at a volume of 70 µl per well and mixed with 20 µl of 50 µM coelenterazine (Carbosynth) diluted in the assay buffer. […] Kinetics data points from 5 min to 10 min were averaged and normalized to the initial count and used as a G-protein dissociation index. For the mutant study, the cell culture and the transfection mixture were scaled down to a 6-cm dish (4 ml culture media) and the transfected cells were suspended in 4 ml of the assay buffer and seeded in the 96-well plate at a volume of 80 µL. The G-protein dissociation signals were fitted to a four-parameter sigmoidal concentration-response curve (GraphPad Prism8). For each experiment, we calculated Emax by normalizing Span to the LY2119620-free condition and ∆pEC50 by subtracting pEC50 of the LY2119620-free condition performed in parallel and used the values to denote allosteric modulator activity. Similarly, for the mutant study, we calculated ∆pEC50 by subtracting pEC50 of the WT (1:1) condition performed in parallel."}},
  "note": "Numbering of substitutions follows the chain as printed. Values joined by “and” are separate entries in the source; they are usually repeats but may differ in a detail not shown here. Identical values can stand only once.",
  "data": [
    {"molecule": "C[N+](C)(C)CC#CCOC1=NOCC1", "note": "[Ixo, iperoxo]", "values": [
      {"measurement": "Residual GTP (%)", "setting": "M2R and GoA; +DMSO", "result": "7.331% and 3.598% and 1.619%"},
      {"measurement": "Residual GTP (%)", "setting": "M2R and GoA; +LY2119620 (100 μM)", "result": "34.958% and 41.3656% and 22.0231%"},
      {"measurement": "GTP-turnover, Fig. 1c (GTPase-Glo luminescence)", "setting": "M2R and GoA; time 15 min, 100 μM ACh or 10 μM Ixo, M2R-GoA", "result": "432481 and 362971 and 431239 and 324973"},
      {"measurement": "∆pEC50", "setting": "human, wild-type M2R; WT (1:1), reference", "result": 0.000},
      {"measurement": "NanoBiT-GoA dissociation signal, Mean (Veh = 1.000)", "setting": "human, wild-type M2R; WT (1:1), IXO Log [M] -6", "result": 0.334},
      {"measurement": "NanoBiT-GoA dissociation signal, Mean (Veh = 1.000)", "setting": "human, wild-type M2R; WT (1:1), IXO Log [M] -7", "result": 0.343},
      {"measurement": "NanoBiT-GoA dissociation signal, Mean (Veh = 1.000)", "setting": "human, wild-type M2R; WT (1:1), IXO Log [M] -8", "result": 0.377},
      {"measurement": "NanoBiT-GoA dissociation signal, Mean (Veh = 1.000)", "setting": "human, wild-type M2R; WT (1:1), IXO Log [M] -9", "result": 0.510},
      {"measurement": "NanoBiT-GoA dissociation signal, Mean (Veh = 1.000)", "setting": "human, wild-type M2R; WT (1:1), IXO Log [M] -10", "result": 0.788},
      {"measurement": "NanoBiT-GoA dissociation signal, Mean (Veh = 1.000)", "setting": "human, wild-type M2R; WT (1:1), IXO Log [M] -11", "result": 0.961},
      {"measurement": "NanoBiT-GoA dissociation signal, Mean (Veh = 1.000)", "setting": "human, wild-type M2R; WT (1:1), IXO Log [M] -12", "result": 1.000},
      {"measurement": "∆pEC50", "setting": "human, wild-type M2R; WT (1:2)", "result": "-0.203 and -0.153 and -0.342 and -0.212"},
      {"measurement": "NanoBiT-GoA dissociation signal, Mean (Veh = 1.000)", "setting": "human, wild-type M2R; WT (1:2), IXO Log [M] -6", "result": 0.338},
      {"measurement": "NanoBiT-GoA dissociation signal, Mean (Veh = 1.000)", "setting": "human, wild-type M2R; WT (1:2), IXO Log [M] -7", "result": 0.345},
      {"measurement": "NanoBiT-GoA dissociation signal, Mean (Veh = 1.000)", "setting": "human, wild-type M2R; WT (1:2), IXO Log [M] -8", "result": 0.397},
      {"measurement": "NanoBiT-GoA dissociation signal, Mean (Veh = 1.000)", "setting": "human, wild-type M2R; WT (1:2), IXO Log [M] -9", "result": 0.567},
      {"measurement": "NanoBiT-GoA dissociation signal, Mean (Veh = 1.000)", "setting": "human, wild-type M2R; WT (1:2), IXO Log [M] -10", "result": 0.844},
      {"measurement": "NanoBiT-GoA dissociation signal, Mean (Veh = 1.000)", "setting": "human, wild-type M2R; WT (1:2), IXO Log [M] -11", "result": 0.975},
      {"measurement": "NanoBiT-GoA dissociation signal, Mean (Veh = 1.000)", "setting": "human, wild-type M2R; WT (1:2), IXO Log [M] -12", "result": 1.005},
      {"measurement": "NanoBiT-GoA dissociation signal, Mean (Veh = 1.000)", "setting": "Mock; IXO Log [M] -6, n = 3", "result": 0.990},
      {"measurement": "NanoBiT-GoA dissociation signal, Mean (Veh = 1.000)", "setting": "Mock; IXO Log [M] -7, n = 3", "result": 0.997},
      {"measurement": "NanoBiT-GoA dissociation signal, Mean (Veh = 1.000)", "setting": "Mock; IXO Log [M] -8, n = 3", "result": 0.995},
      {"measurement": "NanoBiT-GoA dissociation signal, Mean (Veh = 1.000)", "setting": "Mock; IXO Log [M] -9, n = 3", "result": 1.002},
      {"measurement": "NanoBiT-GoA dissociation signal, Mean (Veh = 1.000)", "setting": "Mock; IXO Log [M] -10, n = 3", "result": 1.001},
      {"measurement": "NanoBiT-GoA dissociation signal, Mean (Veh = 1.000)", "setting": "Mock; IXO Log [M] -11, n = 3", "result": 1.005},
      {"measurement": "NanoBiT-GoA dissociation signal, Mean (Veh = 1.000)", "setting": "Mock; IXO Log [M] -12, n = 3", "result": 1.002},
      {"measurement": "IC50", "setting": "M2R; M2R in HDL particles, +GoA", "result": 0.0018, "unit": "µM"},
      {"measurement": "IC50", "setting": "M2R; M2R in HDL particles, absence of GoA", "result": 0.0477, "unit": "µM"},
      {"measurement": "increase of affinity on addition of GoA", "setting": "M2R; M2R in HDL particles", "result": "~ 27 fold"},
      {"measurement": "competition curve data, Fig. 1b ([3H]-NMS binding)", "setting": "M2R; log[M] -6, without GoA", "result": "5.629 and 5.897 and 4.938"},
      {"measurement": "competition curve data, Fig. 1b ([3H]-NMS binding)", "setting": "M2R; log[M] -7, +GoA", "result": "1.735 and 2.591"},
      {"measurement": "competition curve data, Fig. 1b ([3H]-NMS binding)", "setting": "M2R; log[M] -7, without GoA", "result": "32.2784 and 32.9838 and 32.0245"},
      {"measurement": "competition curve data, Fig. 1b ([3H]-NMS binding)", "setting": "M2R; log[M] -8, +GoA", "result": "6.41 and 4.7831 and 8.225"},
      {"measurement": "competition curve data, Fig. 1b ([3H]-NMS binding)", "setting": "M2R; log[M] -8, without GoA", "result": "80.5549 and 71.1592 and 70.0024"},
      {"measurement": "competition curve data, Fig. 1b ([3H]-NMS binding)", "setting": "M2R; log[M] -9, +GoA", "result": "64.4578 and 59.7146 and 77.1975"},
      {"measurement": "competition curve data, Fig. 1b ([3H]-NMS binding)", "setting": "M2R; log[M] -9, without GoA", "result": "92.3489 and 93.3083 and 87.8063"},
      {"measurement": "competition curve data, Fig. 1b ([3H]-NMS binding)", "setting": "M2R; log[M] -10, +GoA", "result": "85.6735 and 79.355 and 99.5434"},
      {"measurement": "competition curve data, Fig. 1b ([3H]-NMS binding)", "setting": "M2R; log[M] -10, without GoA", "result": "97.3148 and 101.914 and 100.771"},
      {"measurement": "competition curve data, Fig. 1b ([3H]-NMS binding)", "setting": "M2R; log[M] -11, +GoA", "result": "89.0468 and 92.1461 and 118.807"},
      {"measurement": "competition curve data, Fig. 1b ([3H]-NMS binding)", "setting": "M2R; log[M] -11, without GoA", "result": "86.0992 and 80.6395 and 89.0477"},
      {"measurement": "competition curve data, Fig. 1b ([3H]-NMS binding)", "setting": "M2R; log[M] -12, +GoA", "result": "107.797 and 98.7044 and 86.8037"},
      {"measurement": "competition curve data, Fig. 1b ([3H]-NMS binding)", "setting": "M2R; log[M] -12, without GoA", "result": "98.7115 and 87.2702 and 99.5439"},
      {"measurement": "∆pEC50", "setting": "M2R L129^34.51A mutant", "result": "-0.434 and -0.475 and -0.315"},
      {"measurement": "NanoBiT-GoA dissociation signal, Mean (Veh = 1.000)", "setting": "M2R L129^34.51A mutant; IXO Log [M] -6, n = 3", "result": 0.336},
      {"measurement": "NanoBiT-GoA dissociation signal, Mean (Veh = 1.000)", "setting": "M2R L129^34.51A mutant; IXO Log [M] -7, n = 3", "result": 0.355},
      {"measurement": "NanoBiT-GoA dissociation signal, Mean (Veh = 1.000)", "setting": "M2R L129^34.51A mutant; IXO Log [M] -8, n = 3", "result": 0.423},
      {"measurement": "NanoBiT-GoA dissociation signal, Mean (Veh = 1.000)", "setting": "M2R L129^34.51A mutant; IXO Log [M] -9, n = 3", "result": 0.635},
      {"measurement": "NanoBiT-GoA dissociation signal, Mean (Veh = 1.000)", "setting": "M2R L129^34.51A mutant; IXO Log [M] -10, n = 3", "result": 0.887},
      {"measurement": "NanoBiT-GoA dissociation signal, Mean (Veh = 1.000)", "setting": "M2R L129^34.51A mutant; IXO Log [M] -11, n = 3", "result": 0.985},
      {"measurement": "NanoBiT-GoA dissociation signal, Mean (Veh = 1.000)", "setting": "M2R L129^34.51A mutant; IXO Log [M] -12, n = 3", "result": 1.001}
    ]}
  ]
}
